Assay results reported in PubChem BioAssay (NCI).
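Where inhibition never reached the appropriate level, the endpoint shown equals the highest concentration tested. Otherwise, values were interpolated linearly from a five-concentration, 48-hour dose response in 96-well plates. TGI: total growth inhibition.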

Key:
Assay in all cases: inhibition of tumour cell growth, NCI panel, 48 h
[1] = test system: HL-60(TB) leukemia
[2] = test system: KM12 colon
[3] = test system: OVCAR-5 ovarian
[4] = test system: OVCAR-8 ovarian
[5] = test system: SK-OV-3 ovarian
[6] = test system: RXF-631 renal
[7] = test system: RPMI-8226 leukemia
[8] = test system: SF-295 CNS
[9] = test system: HT29 colon
[10] = test system: U251 CNS
[11] = test system: CCRF-CEM leukemia
[12] = test system: NCI-H522 lung
[13] = test system: SK-MEL-2 melanoma
[14] = test system: ACHN renal
[15] = test system: 786-0 renal
[16] = test system: UACC-257 melanoma
[17] = test system: DLD-1 colon
[18] = test system: LOX IMVI melanoma
[19] = test system: SW-620 colon
[20] = test system: DMS 273 small cell lung
[21] = test system: LXFL 529 NSCLC
[22] = test system: MALME-3M melanoma
[23] = test system: HOP-92 NSCLC
[24] = test system: CAKI-1 renal
[25] = test system: UO-31 renal
[26] = test system: MOLT-4 leukemia
[27] = test system: HCT-15 colon
[28] = test system: SF-539 CNS
[29] = test system: SF-268 CNS
[30] = test system: M14 melanoma
[31] = test system: SK-MEL-28 melanoma
[32] = test system: RXF 393 renal
[33] = test system: OVCAR-4 ovarian
[34] = test system: IGROV1 ovarian
[35] = test system: SR leukemia
[36] = test system: NCI-H23 lung
[37] = test system: K-562 leukemia
[38] = test system: HCT-116 colon
[39] = test system: NCI-H460 lung
[40] = test system: KM20L2 colon
[41] = test system: XF 498 CNS
[42] = test system: HCC-2998 colon
[43] = test system: COLO 205 colon
[44] = test system: OVCAR-3 ovarian
[45] = test system: M19-MEL melanoma
[46] = test system: A549 NSCLC
[47] = test system: HOP-62 NSCLC
[48] = test system: EKVX NSCLC
[49] = test system: SK-MEL-5 melanoma
[50] = test system: SN12C renal
[51] = test system: HOP-18 NSCLC
[52] = test system: TK-10 renal
[53] = test system: SNB-75 CNS
[54] = test system: UACC-62 melanoma
[55] = test system: DMS 114 small cell lung
[56] = test system: A498 renal
[57] = test system: NCI-H226 lung
[58] = test system: SNB-19 CNS
[59] = test system: SNB-78 CNS

## NCCc1ccc2oc3cc(=O)c4ccccc4c-3nc2c1
[1]
  TGI: 3.42 µM
[2]
  TGI: 8.35 µM
[3]
  TGI: 15.4 µM
[4]
  TGI: 10.6 µM
[5]
  TGI: 24.4 µM
[6]
  TGI: 8.88 µM
[7]
  TGI: 23.2 µM
[8]
  TGI: 9.48 µM
[9]
  TGI: 4.35 µM
[10]
  TGI: 10.6 µM
[11]
  TGI: 4.49 µM
[12]
  TGI: 7.66 µM
[13]
  TGI: 5.16 µM
[14]
  TGI: 12 µM
[15]
  TGI: 4.89 µM
[16]
  TGI: 7.4 µM
[17]
  TGI: 9.34 µM
[18]
  TGI: 4.42 µM
[19]
  TGI: 5.95 µM
[20]
  TGI: 3.11 µM
[21]
  TGI: 13.4 µM
[22]
  TGI: 4.37 µM
[23]
  TGI: 21.6 µM
[24]
  TGI: 24 µM
[25]
  TGI: 9.37 µM
[26]
  TGI: 5.52 µM
[27]
  TGI: 5.01 µM
[28]
  TGI: 6.35 µM
[29]
  TGI: 15.4 µM
[30]
  TGI: 4.18 µM
[31]
  TGI: 10.7 µM
[32]
  TGI: 9.94 µM
[33]
  TGI: 15.8 µM
[34]
  TGI: 15.5 µM
[35]
  TGI: 4.67 µM
[36]
  TGI: 2.39 µM
[37]
  TGI: 6.95 µM
[38]
  TGI: 2.87 µM
[39]
  TGI: 2.76 µM
[40]
  TGI: 9.12 µM
[41]
  TGI: 7.01 µM
[42]
  TGI: 6.78 µM
[43]
  TGI: 1.81 µM
[44]
  TGI: 8.12 µM
[45]
  TGI: 0.894 µM
[46]
  TGI: 2.18 µM
[47]
  TGI: 10.3 µM
[48]
  TGI: 25.1 µM
[49]
  TGI: 2.13 µM
[50]
  TGI: 7.22 µM
[51]
  TGI: 4.67 µM
[52]
  TGI: 27.3 µM
[53]
  TGI: 6.06 µM
[54]
  TGI: 8.58 µM
[55]
  TGI: 2.85 µM
[56]
  TGI: 26.3 µM
[57]
  TGI: 17.5 µM
[58]
  TGI: 11 µM
[59]
  TGI: 23.3 µM

## CCOc1ccc2nc(NC(=O)C(=O)C(C#N)CC(C)(C)C=O)sc2c1 (configuration not stated)
[1]
  TGI: > 100 µM
[2]
  TGI: > 100 µM
[3]
  TGI: > 100 µM
[4]
  TGI: > 100 µM
[5]
  TGI: > 100 µM
[6]
  TGI: > 100 µM
[7]
  TGI: > 100 µM
[8]
  TGI: > 100 µM
[9]
  TGI: > 100 µM
[10]
  TGI: > 100 µM
[11]
  TGI: 63.1 µM
[12]
  TGI: > 100 µM
[13]
  TGI: > 100 µM
[14]
  TGI: > 100 µM
[15]
  TGI: > 100 µM
[16]
  TGI: > 100 µM
[17]
  TGI: > 100 µM
[18]
  TGI: > 100 µM
[20]
  TGI: 51.5 µM
[21]
  TGI: > 100 µM
[22]
  TGI: > 100 µM
[23]
  TGI: > 100 µM
[24]
  TGI: > 100 µM
[25]
  TGI: > 100 µM
[26]
  TGI: > 100 µM
[27]
  TGI: > 100 µM
[28]
  TGI: > 100 µM
[29]
  TGI: > 100 µM
[30]
  TGI: > 100 µM
[31]
  TGI: > 100 µM
[32]
  TGI: > 100 µM
[33]
  TGI: > 100 µM
[34]
  TGI: > 100 µM
[35]
  TGI: 46 µM
[36]
  TGI: > 100 µM
[37]
  TGI: > 100 µM
[38]
  TGI: > 100 µM
[39]
  TGI: > 100 µM
[40]
  TGI: > 100 µM
[41]
  TGI: > 100 µM
[42]
  TGI: > 100 µM
[43]
  TGI: > 100 µM
[44]
  TGI: > 100 µM
[45]
  TGI: > 100 µM
[46]
  TGI: > 100 µM
[47]
  TGI: > 100 µM
[48]
  TGI: > 100 µM
[49]
  TGI: > 100 µM
[50]
  TGI: > 100 µM
[51]
  TGI: > 100 µM
[52]
  TGI: > 100 µM
[53]
  TGI: > 100 µM
[54]
  TGI: > 100 µM
[55]
  TGI: > 100 µM
[56]
  TGI: > 100 µM
[57]
  TGI: > 100 µM
[58]
  TGI: > 100 µM
[59]
  TGI: > 100 µM
